Test results reported in patent US12570975B2, “Composition for diagnosis or treatment of a condition associated with increased activity of EIF4E comprising an EIF4E inhibitor” (SoVarGen Co., Ltd., priority 2019, dated 2026).

Tests used:
[1] = system: FMCD and epilepsy animal models (mTOR-p.C1483Y, mTOR-p.L2427P); test: Light & dark box test, FMCD epilepsy models; format: in vivo, mouse; conditions: ASO-eIF4E models compared to ASO-control models
Experimental: (§1) Behaviors were recorded and analyzed using EthoVision XT (Noldus).
(§2) Experiments were performed on the FMCD and epilepsy animal models (mTOR-p.C1483Y, mTOR-p.L2427P) of Example 7-1 and the control normal animal models (mTOR-WT). The same sheIF4E as that described in Example 2 was used. Week 2 after sheIF4E injection, the handling was performed in the animals. Week 3 after sheIF4E injection, the animals were subjected to the behavioral tests.
(§3) The epilepsy animal models were subjected to the substantially same behavioral abnormality assay as in Example 6. The results are depicted in FIGS. 28 and 29.
(§4) Briefly, ASO #77 was administered by ICV injection to the FMCD and epilepsy animal models were generated with the pCIG-mTOR mutant-IRES-EGFP of Example 1. ASO #77 was evaluated for therapeutic potential for neuropsychiatric disorder accompanying the FMCD epilepsy animal models in the substantially same manner as in Example 6.

C57BL/6J mice [2] = conditions: mouse, in vivo
Experimental: In this regard, ASO was administered by ICV injection. The ASO used in this experiment was ASO #77.
The 3-Chamber test measures social interaction and preference for social novelty. This apparatus consisted of three chambers with dimensions of 12×20×26 cm for the center chamber and dimensions of 14×20×26 cm for the opposite side chambers. Each of the opposite side chambers included a plastic cage (11 cm in diameter, 2.15 cm in height) for an object or stranger mouse in a corner. This experiment consisted of three sessions of habituation (10 min), exploring object/mouse (10 min), and exploring familiar/new mouse (10 min). In the second session, a WT stranger mouse was randomly placed in a plastic cage while the opposite plastic cage was empty. The mouse was allowed to freely explore the whole apparatus. The time spent in each chamber was measured and then used for the subsequent social interaction test. In the last session, a new WT stranger was placed in the empty plastic cage.

[3] = over 8 weeks after ASO injection, 8-week-old mTOR mutation C57BL/6J mice
[4] = system: FMCD and epilepsy animal models (mTOR-p.C1483Y, mTOR-p.L2427P); format: in vivo, mouse
Experimental: as §1, §2, §3, §4

C57BL/6J mice [5] = conditions: mouse, in vivo; remark: listed apart in the source
[6] = system: FMCD and epilepsy animal models (mTOR-p.C1483Y, mTOR-p.L2427P); test: Social avoidance test, FMCD epilepsy models; format: in vivo, mouse; conditions: ASO-eIF4E models compared to ASO-control models
Experimental: The arena was a black box (400×400 mm).
as §2, §3, §4

eIF4E = test: Immunofluorescence of eIF4E in brain cells after ASO injection; format: in vivo, mouse; conditions: week 4-5 after ICV injection, FMCD models
Experimental: (§5) Week 4-5 after intracerebroventricular injection of ASO into the animal models established using pCIG-mTOR mutant-IRES-EGFP vector of Example 1, the brain was removed, fixed, sectioned, and immunostained.
(§6) Immunostaining with antibodies against ADK, CREB1, IRSp53, and eIF4E and Imaging with fluorescence were conducted in the same manner as in Example 2.

ADK, IRSp53, and CREB1 = test: Immunofluorescence of ADK, IRSp53 and CREB1 after ASO injection; format: in vivo, mouse; conditions: week 4-5 after ICV injection
Experimental: as §5, §6

eIF4E mRNA [7] = test: Inhibitory concentration (IC50) against eIF4E mRNA, real-time PCR, HEK293T; format: cell-based, human
Experimental: In order to calculate IC50 values for ASO sequences, ASO candidates are transfected at different concentrations (20 nM, 80 nM, 320 nM) into the human cell line HEK293T (human) with the aid of iN-fect™ in vitro transfection reagent (15081, iNtRON, Republic of Korea). Twenty four hours after ASO transfection, the cells were harvested and analyzed for eIF4E mRNA expression reduction by real-time PCR. Relative eIF4E mRNA expression was normalized to the expression level using GAPDH as an internal control and was evaluated using the 2^−ΔΔCq method.
For comparison of inhibitory concentrations (IC50) among ASO candidates, a dose-response curve was derived by normalized nonlinear regression using Prism8 program (GraphPad Software, USA) (FIG. 16e).

C57BL/6J mice [8] = conditions: male or female mice injected with ASO
C57BL/6J mice [9] = conditions: mouse, in vivo; remark: listed apart in the source
[10] = system: FMCD and epilepsy animal models (mTOR-p.C1483Y, mTOR-p.L2427P); test: Sucrose preference test, FMCD epilepsy models; format: in vivo, mouse; conditions: ASO-eIF4E models compared to ASO-control models
Experimental: Each of mice was habituated for 3-5 days in a cage with two selectable water bottles presented. Thereafter, the mice were each placed in the same cage as the habituation cage at the day of experiment. The mice were presented with two dual bottles, one containing tap water and the other containing 1% sucrose solution. Water and sucrose solution intake was measured after 24 hours and sucrose preference was calculated according to volume of sucrose intake/total volume of fluid intake×100%.
The same sheIF4E as that described in Example 2 was used. Week 2 after sheIF4E injection, the handling was performed in the animals. Week 3 after sheIF4E injection, the animals were subjected to the behavioral tests.
The epilepsy animal models were subjected to the substantially same behavioral abnormality assay as in Example 6.
as §4

eIF4E mRNA [11] = test: ASO screening by real-time PCR (eIF4E mRNA, HEK293T); format: cell-based, human; conditions: relative to ASO #75
Experimental: In an alternative approach for screening the designed ASO candidates, the human cell line HEK293T cells (human) were cultured on 96-well culture plates for 24 hours and then transfected with ASO candidates with the aid of iN-fect™ transfection reagent (INTRON, 15081). Twenty four hours after transfection, the cells were harvested and subjected to lysis and RNA extraction using SuperPrep™ II Cell Lysis & RT Kit reagent (Toyobo, SCQ-401). From the RNA thus obtained, cDNA was synthesized by reverse transcription PCR. Real-time PCR was performed in CXF384 Touch™ Real-Time System (Bio-Rad) with SYBR® green real-time PCR master mix (Toyobo, QPK-201). Forward and reverse PCR primer sequences for eIF4E and GAPDH are as follows:
The real-time PCR conditions in the CXF384_Touch™ Real-Time System were as follows: 95° C. for 1 min, then 95° C. for 15 sec, 59.5° C. for 20 sec, and 72° C. for 30 sec for 39 cycles. Each sample was analyzed in triplicates. […] FIGS. 16b and 16c are graphs in which relative eIF4E expression levels are quantitatively expressed as ratios compared to the GAPDH expression level in HEK293T cells treated with ASO candidates.

Substance: ASO #77: eIF4E-targeting antisense oligonucleotide of SEQ ID NO: 77, 2′-MOE gapmer, all phosphorothioate linkages (antisense GATCCTTCACCAATGTTACA; all phosphorothioate, sugars by position and methylation of C not given here; 2'-MOE gapmer)
- time spent in center (residence time within the light box) [1]: increased
- time spent in sniffing zone (index of sociality) (C57BL/6J mice [2]): not changed
- body weight [3]: recovered to normal conditions
- time spent in center (index of anxiety) ([4]; ASO-eIF4E models compared to ASO-control models): increased
- dyskinesia (behavior test) ([4]; mouse, in vivo): no dyskinesia
- number of buried marbles (index of repetitive behavior) (C57BL/6J mice [5]): not changed
- time spent to interact with the stranger mouse (social ability and depression) [6]: increased
- eIF4E expression in brain cells (immunofluorescence) (eIF4E): reduction of eIF4E expression
- expression of ADK, IRSp53, and CREB1 in the mutation cells (ADK, IRSp53, and CREB1): rescue of the expression of ADK, IRSp53, and CREB1 to a normal level
- IC50 (eIF4E mRNA [7]; HEK293T, 20, 80, 320 nM, 24 h after transfection, read-out: IC50 against eIF4E mRNA expression): 53.8 nM
- eIF4E mRNA expression compared to the mismatch ASO (eIF4E mRNA [7]; HEK293T, at all of the doses (20 nM, 80 nM, 320 nM)): inhibited
- % sucrose preference (C57BL/6J mice [8]): not changed
- time spent in center (residence time within the light box) (C57BL/6J mice [9]): not changed
- % sucrose preference [10]: increased
- Expression level of eIF4E(%) compared to ASO#75 (eIF4E mRNA [11]): 121%
